SMILES | melting point
CS(=O)(=O)c1ccc(C(CC2CCCC2)C(=O)Nc2ccccn2)cc1C#N (stereo not given) | 87 to 90 °C
CON=Cc1ccc(-c2ccccc2NC(=O)c2c(C)nn(C)c2F)cc1 | 114 to 116 °C
CC(C)(C)[Si](C)(C)OC(CCCO)COc1ccc2c(=O)cc(-c3ccccc3)oc2c1 (stereo not given) | 124 to 125 °C
Cn1cc(-c2cc3cccnc3[nH]2)c2cc(-c3nn[nH]n3)ccc21 | 303 °C
CC(C)Oc1ccc2c(c1)Oc1ccccc1S2(=O)=O | 94 to 95 °C
Cc1oc(-c2ccccc2)nc1CCC(=O)c1ccc(C=C2SC(=O)NC2=O)cc1 | 224 to 225 °C
CCCCCN1C(=O)C2(COc3cc(F)c(Cl)cc32)c2ccccc21 (stereo not given) | 74 to 76 °C
CCOCCc1c(N=[N+]=[N-])nc(NC(=O)NCC(=O)OCC)nc1-c1ccccc1 | 130 °C
FC(F)(F)c1cc(-c2ncn(CCCN3CCOCC3)c2-c2ccncc2)cc(C(F)(F)F)c1 | 136 to 138 °C
CCCCCCCN1C(=O)C2CC2(c2ccc(N)cc2)C1=O (stereo not given) | 78 to 79 °C
CC(=O)NC(Cc1c[nH]c2ccccc12)C(=O)OCc1cc(C)cc(C)c1 (stereo not given) | 145 to 146 °C
CC(C)Cc1cc2c(s1)C(C(=O)O)CC2=O (stereo not given) | 80 °C
CCC[C@@H]1COC(=O)N1c1nc(-c2ccc(Br)cc2)cs1 | 114 to 116 °C
N#CC(C#N)=CN(N=C(C#N)C#N)c1ccc(Cl)cc1 | 161 to 162 °C
CCCNC1=NC(c2cccc(-c3cncnc3)c2)(c2ccc(OCCC)c(C)c2)C(=O)N1C (stereo not given) | 64 to 66 °C
CC(C)c1cccc(-c2c(Cl)ccc3c2C=C(C(=O)O)C(C(F)(F)F)O3)c1 (stereo not given) | 184 to 186 °C
O=[N+]([O-])c1cc(F)cc(I)c1O | 40 °C
CCCCCCC(C)(C)c1ccc(C2CC(=O)CC(=O)C2)c(OCc2ccccc2)c1 | 102 to 103 °C
Cc1ccccc1-n1c(CSc2ncnc3[nH]cnc23)nc2cccc(Cl)c2c1=O | 214 °C
Cc1cc(O)c(S(=O)Cc2ccccc2)c(=O)o1 (stereo not given) | 150 to 153 °C
Cc1nn(C)c2c(Cl)ncnc12 | 92 to 95 °C
Cc1cccc2c(=O)[nH]c(CCCN(C)C)cc12 | 105 to 106 °C
Cc1c(-c2ccccc2)oc2c(C(=O)O)cccc12 | 220 to 222 °C
COc1cc(OC)nc(Oc2cccc(Oc3nc(OC)cc(OC)n3)c2C(=O)OCc2ccccc2)n1 | 130 to 132 °C
CCC1C=C(CCN(O)C(N)=O)c2ccccc21 (stereo not given) | 81 to 83 °C
O=c1nc(-c2ccc3c(n2)CCCC3)sc2ccccc12 | 232 to 233 °C
CC(=O)Nc1cc(Br)ccc1Sc1ccc([N+](=O)[O-])cc1[N+](=O)[O-] | 194 to 196 °C
C=CC(=O)Nc1cccc(-c2ccnc3c(C(=O)c4cccs4)cnn23)c1 | 192 to 194 °C

SMILES | melting point
OC(COc1ccccc1-n1cccc1)CN1CCOCC1 (stereo not given) | 81 to 82 °C
CC(=O)Nc1nc(-c2ccc(S(C)=O)cc2)cs1 (stereo not given) | 274 °C
O=C(/C=C/C=C(c1ccc(Cl)cc1)c1ccc(Cl)cc1)NCCCCc1cccnc1 | 146 to 147 °C
CC(=O)Nc1c(C(=O)c2ccncc2)[nH]c2cc(Cl)ccc12 | 262 to 264 °C
COC(Cn1ncc(-c2ccc(S(C)(=O)=O)cc2)c(-c2ccc(F)cc2)c1=O)c1ccccc1 (stereo not given) | 135 to 137 °C
O=C(CCc1cc(C2CCCCC2)c(O)c(C2CCCCC2)c1)OCCCCCCOC(=O)CCc1cc(C2CCCCC2)c(O)c(C2CCCCC2)c1 | 113 to 115 °C
N#Cc1ccc(C(Cl)(Cl)Cl)cc1C(Cl)(Cl)Cl | 76 to 78 °C
COc1ccc(Nc2nccc(-c3cccs3)n2)cc1 | 158 to 160 °C
CC1=CC(=O)CC(C)(C)C1(O)/C=C/C(C)=C\C=O (stereo not given) | 111 to 113 °C
CC(C)(O)Cn1cnc2c(N)nc3cc(OCc4ccccc4)ccc3c21 | 254 to 257 °C
COC(=O)COc1ccc(C[C@H](NC(=O)OC(C)(C)C)C(=O)O)cc1 | 75 to 79 °C
COC(=O)C(CNC(=O)Cc1ccc(OC)c(OC)c1)c1ccc(OC)c(OC)c1 (stereo not given) | 92 to 93 °C
Cn1c(=O)n(CC2(C)Cn3cc([N+](=O)[O-])nc3O2)c2ccccc21 (stereo not given) | 203 to 204 °C
COc1ccc(CSc2nnc(-c3ccc4occ(-c5ccc(OC)cc5)c4c3)o2)cc1 | 162 to 163 °C
CCOC(=O)C(C)Oc1ccc(N(C)c2cc3ccccc3c(O)n2)cc1 (stereo not given) | 96 °C
CCCc1nc(C(C)(C)O)c(C(=O)OCC)n1Cc1ccc(-c2ccccc2C(=O)OC(C)(C)C)cc1 | 90 to 91 °C
CC1CCN(Cc2cc(COc3cccc4c3CN(C3CCC(=O)NC3=O)C4=O)on2)CC1 (stereo not given) | 168 to 170 °C
CCc1c(C)nc2cccc(C)n2c1=O | 127 to 128 °C
Nc1nc(N)nc(C2CC3CC2CC3c2nc(N)nc(N)n2)n1 (stereo not given) | 317 to 324 °C
CCCCNC(=O)ON1C(C)(C)CC(OC(=O)c2ccccc2)CC1(C)C | 126 to 127 °C
COC(=O)c1cccc(S(=O)(=O)N(C)C)c1CS(=O)(=O)NC(=O)Nc1nc(OC)cc(OC)n1 | 175 to 180 °C
Cc1ccc(C(=O)OC2CCN(Cc3cccc([N+](=O)[O-])c3)CC2)cc1 | 90 to 93 °C
C=Cc1cn(-c2ccccn2)c2c1C(=O)CC(C)(C)C2 | 150 to 154 °C
CC1(C)CCC(C)(C)c2cc(-c3ccc(O)c(-c4ccc(C(=O)O)cc4)c3)ccc21 | 264 to 267 °C
CSc1ccc(F)c(C#N)c1 | 61.7 to 62.7 °C
C=CCN1CCC(=O)N(c2c(C)cccc2C)C1=S | 88 to 91 °C
O=C1N(c2c(Cl)cccc2Cl)Cc2cnc(NCC3CCCCC3)nc2N1c1ccccc1 | 229 to 233 °C

Next, values leading:

melting point | SMILES
94 to 95 °C | COC(C)C(O)(Cc1ccc(Cl)cc1Cl)c1cccnc1 (stereo not given)
166 to 168 °C | CC1CCCN1c1nc(C#N)nc(Cl)c1/C(Br)=C(\Br)[Si](C)(C)C (stereo not given)
139 to 140 °C | CCOC(=O)C1=C(C#N)NC(C)=C(C(=O)OCCOCc2ccccc2)C1c1ccccc1[N+](=O)[O-] (stereo not given)
176 to 177 °C | O=C(c1cccc(F)c1)N1Cc2c(-c3ccc(F)cc3)ncn2-c2ccccc21
247 to 253 °C | CNc1c(F)c(C)c2c(=O)c(C(=O)O)cn(-c3cc(N)c(F)cc3F)c2c1C
156 °C | Cc1ccc(S(N)(=O)=O)cc1Br
221 to 222 °C | CC(CCNC1=Nc2ccc(S(=O)(=O)N(C)C)c3cccc1c23)n1ccnc1 (stereo not given)
84 to 85 °C | CC(CSc1nn(-c2ccccc2)c2c1CCC2)C(=O)O (stereo not given)
168 to 170 °C | O=C(O)COc1nc2ccccc2s1
120 to 121 °C | COc1cc(NC(=O)CCCCCN2CCN(c3ccccn3)CC2)c2nccc(C)c2c1
86 to 88 °C | C=CCc1cc2c(c(CC=C)c1O)NC(=O)CC2
109 to 111 °C | CC(=O)OC1C(CO)OC(n2c(=O)sc3cnc(N)nc32)C1OC(C)=O (stereo not given)
188 °C | COc1cc(C)c2c(c1)c1c(n2Cc2ccc(Cl)cc2)C(CC(=O)O)CCC1 (stereo not given)
112 to 114 °C | CCOC(=O)C(CC)=C(C)NC(=O)Nc1cc(OC(C)C)c(Cl)cc1F
256 to 260 °C | O=c1cc(OCC2CCCCC2)cc[nH]1
152 to 153 °C | COC(=O)C1=C(C)NC(C)=C(C(=O)OCCCl)C1c1cccc(Br)n1 (stereo not given)
232 to 233 °C | CN1CCN(c2cccc(NC(=O)c3ccc(-c4ccncc4)cc3)c2)CC1
170 to 174 °C | CCOC(=O)Nc1nc(C(=O)C(=O)OC)ns1
139 to 140 °C | CCOC(=O)c1c(-c2ccccc2Cl)c2cc(Cl)ccc2n(C)c1=O
157 to 159 °C | CCCCc1nc2ccc(O)cc2c(=O)n1Cc1ccc(-c2ccccc2-c2nnnn2COC)cc1
158 °C | COCCC(=O)N[C@H]1CC[C@H](CCN2CCN(c3nc(C)cc4occc34)CC2)CC1
122 to 123 °C | CC(C)Cn1nc(OCCCCc2ccc(OC(C)C)cc2Oc2ncc(C(F)(F)F)cc2Cl)cc1CCC(=O)O
75 to 76 °C | CNc1ccc(-c2c[nH]cn2)cc1

melting point | SMILES
172 to 173 °C | COC(=O)c1cccc(C=Cc2nc3cc(F)ccc3s2)c1
193 to 194 °C | CC=CC(=O)Nc1cccc(OC(=O)Nc2ccc(Cl)c(Cl)c2)c1
85 to 86.5 °C | OCc1csc(NCc2ccccc2)n1
81 to 87.5 °C | CCN(CC)CCCCNc1ncc2cc(-c3c(Cl)cccc3Cl)c(NC(=O)Nc3ccccc3)nc2n1
152 to 153 °C | O=C1NCCC12CCCN2Cc1ccccc1 (stereo not given)
205 to 207 °C | COC(=O)c1cc2ccc(C(=O)NC(CO)CO)cc2[nH]1
84 to 86 °C | COc1cccc2c1CCc1cnoc1-2
204 to 205 °C | NC(=O)c1ccc(N2CCN(CCC3CCc4ccccc43)CC2)cc1 (stereo not given)
94 to 98 °C | Nc1ccc(Cl)cc1C(O)c1ccccc1F (stereo not given)
50 to 53 °C | C[Si](C)(ON(Cc1ccccc1)Cc1ccccc1)ON(Cc1ccccc1)Cc1ccccc1
135 °C | CC(C#N)(c1ccc(Cl)cc1)c1ccc(N)cc1Cl (stereo not given)
220 to 224 °C | COc1ccccc1C1(Cl)C(=O)Nc2ccc(Cl)cc21 (stereo not given)
176 °C | CN(C)c1cccc(C(=O)NC2CCN(C(c3ccccc3)c3ccccc3)CC2)c1[N+](=O)[O-]
312 to 313 °C | Cc1[nH]c(=O)c(C#N)cc1-c1ccc(S(C)(=O)=O)cc1
161 to 162 °C | C[C@H]1CCCN(C(=O)Cc2ccc(Cl)c(Cl)c2)[C@H]1CO (relative stereo)
169 to 172 °C | C=CCONC(=O)c1nc(-c2ccc(Cl)c(OC)c2F)cc(N)c1Cl
99 to 100 °C | CCOC(=O)c1cnc(SC)nc1NCc1ccc(OC)c([N+](=O)[O-])c1
239 to 240 °C | COc1cc(Nc2c(C#N)cnc3cc(-c4ccc(CN5CCC(CC(=O)O)CC5)cc4)ccc23)c(Cl)cc1Cl
165 °C | Cn1cc(-c2ccccc2)c(=O)c(-c2ccccc2F)c1
143 to 144 °C | N#CCCNC(=O)c1cccc(-c2cccc(Oc3ccc(Cl)cc3)n2)c1
106 to 108 °C | CC1(C)CCC(=O)Nc2cc(OCCCCN3CCN(c4cccc(Cl)c4Cl)CC3)ccc21
56 to 58 °C | CN(Sc1nc2ccccc2s1)C(C)(C)C
